According to article PMC11054303, “Design and Synthesis of Novel N-Benzylidene Derivatives of 3-Amino-4-imino-3,5-dihydro-4H-chromeno[2,3-d]pyrimidine under Microwave, In Silico ADME Predictions, In Vitro Antitumoral Activities and In Vivo Toxicity” (Pharmaceuticals, 2024):
pIC50: −log10 of the molar value.

How the values were obtained:
MDA MB468 = experiment: Antiproliferative assay, MDA MB468; format: cell-based, human; details: for pIC50: Homo sapiens, MDA-MB-468, 48 h incubation, average of three assays, standard error ± 0.5 μM; for Selectivity Index (SI) MDA MB468: SI = IC50 fibroblasts/IC50 on MDA MB468
Protocol: (§1) The potential antiproliferative activity of these novel 3-(N-phenylmethyliden)amino-4-imino-3,5-dihydro-4H-chromeno[2,3-d]pyrimidine 10(a-i) and 10-(N-phenylmethyliden)amino-11-imino-11H-naphto[1′,2′:5,6]pyrano[2,3-d]pyrimidine 10(j-l) was evaluated in a panel of eight tumoral cell lines and in diploid skin fibroblasts used as normal cell lines for control. For these antitumor assays, chosen cell lines represent diverse types of human cancer, which are, respectively, human hepatocellular carcinoma (Huh7 D12), human colon adenocarcinoma (Caco2), human breast adenocarcinoma (MDA-MB231), MDA-MB468 for human breast carcinoma which correspond to the Triple Negative Breast Cancer (TNBC), human colon carcinoma (HCT116), PC3 as cell line initiated from bone metastasis of grade IV prostatic adenocarcinoma from a person, MCF7 as breast cancer line isolated from a person and PANC1, as human pancreatic cancer cell line. The potential antiproliferative activity was preliminarily evaluated in vitro at a 25 μM single dose.
(§2) The IC50 was calculated from the full dose-response curve and used as a parameter for the antiproliferative activity of the new compounds.
(§3) Skin diploid fibroblastic cells were provided by BIOPREDIC International Company (Rennes, France). Huh-7D12 (Ref ECACC: 01042712), Caco2 (Ref ECACC: 86010202), MDA-MB-231 (Ref ECACC: 92020424), MDA-MB-468, HCT-116 (Ref ECACC: 91091005), PC3 (Ref ECACC: 90112714), and MCF7 cell lines were obtained from the ECACC collection. PANC1 cell lines, a generous gift of LBAI Inserm 1227 (Brest, France). Cells were grown according to ECACC recommendations in DMEM for Huh-D12, MDA-MB-231, MDA-MB-468 and fibroblast, in EMEM for Caco2, in McCoy’s for HCT-116 and RPMI for PC3 at 37 °C and 5% CO2. All culture media with 10% of FBS, 1% of penicillin-streptomycin and 2 mM glutamine.
(§4) Chemicals were solubilized in DMSO at a concentration of 10 mM (stock solution) and diluted in a culture medium to the desired final concentrations. […] The toxicity test of the chemicals on these cells was as follows: 2 × 10^3 cells for HCT-116 cells or 4 × 10^3 for the other cells were seeded in 96-multi-well plates in triplicate and left for 24 h for attachment, spreading and growing. Then, cells were exposed for 48 h to increasing concentrations of chemicals, ranging from 0.1 μM to 25 μM, in a final volume of 120 μL of culture medium. After 48 h of treatment, cells were washed in PBS and fixed in a cooled 90% ethanol/5% acetic acid solution for 20 min. The nuclei were stained with Hoechst 3342 (B2261 Merck Sigma-Aldrich) and counted. Image acquisition and analysis were performed using automated imaging analysis with a Cellomics Arrayscan VTI/HCS Reader (Thermo/Scientific, Waltham, MA, USA). The survival percentages were calculated as the percentage of cell number after chemical treatment over cell number after DMSO treatment. The IC50 was graphically determined.

MCF7 = experiment: Antiproliferative assay, MCF7; format: cell-based, human; details: for pIC50: Homo sapiens, MCF7, 48 h incubation, average of three assays, standard error ± 0.5 μM; for Selectivity Index (SI) MCF7: SI = IC50 fibroblasts/IC50 on MCF7
Protocol: as §1, §2, §3, §4

Huh7 D12 = experiment: Antiproliferative assay, Huh7 D12; format: cell-based, human; details: for pIC50: Homo sapiens, Huh-7D12, 48 h incubation, average of three assays, standard error ± 0.5 μM; for Selectivity Index (SI) Huh7 D12: SI = IC50 fibroblasts/IC50 on Huh7 D12
Protocol: as §1, §2, §3, §4

HCT 116 = experiment: Antiproliferative assay, HCT 116; format: cell-based, human; details: for pIC50: Homo sapiens, HCT-116, 48 h incubation, average of three assays, standard error ± 0.5 μM; for Selectivity Index (SI) HCT 116: SI = IC50 fibroblasts/IC50 on HCT 116
Protocol: as §1, §2, §3, §4

tumor cell lines = experiment: Antiproliferative assay, panel of tumoral cell lines; format: cell-based; details: Homo sapiens, 48 h, summary over tumoral cell lines of Table 3, 48 h; read-out: IC50 on tumor cell lines (span over the panel)
Protocol: as §1, §2, §3, §4

Fibroblasts = experiment: Antiproliferative assay, diploid skin fibroblasts (normal cells); format: cell-based; details: for pIC50: Fibroblast, 48 h incubation, average of three assays, standard error ± 0.5 μM
Protocol: as §1, §2, §3, §4

MDA MB231 = experiment: Antiproliferative assay, MDA MB231; format: cell-based, human; details: for pIC50: Homo sapiens, MDA-MB-231, 48 h incubation, average of three assays, standard error ± 0.5 μM; for Selectivity Index (SI) MDA MB231: SI = IC50 fibroblasts/IC50 on MDA MB231
Protocol: as §1, §2, §3, §4

Caco2 = experiment: Antiproliferative assay, Caco2; format: cell-based, human; details: Homo sapiens, Caco-2; 48 h incubation; average of three assays, standard error ± 0.5 μM
Protocol: as §1, §2, §3, §4

[1] = Antiproliferative assay, Caco2; format: cell-based, human; details: human, Caco-2; SI = IC50 fibroblasts/IC50 on Caco2; read-out: Selectivity Index (SI) Caco2
Protocol: as §1, §2, §3, §4

PC3 = experiment: Antiproliferative assay, PC3; format: cell-based, human; details: for pIC50: Homo sapiens, PC-3, 48 h incubation, average of three assays, standard error ± 0.5 μM; for Selectivity Index (SI) PC3: SI = IC50 fibroblasts/IC50 on PC3
Protocol: as §1, §2, §3, §4

PANC1 = experiment: Antiproliferative assay, PANC1; format: cell-based, human
Protocol: as §1, §2, §3, §4

[2] = system: zebrafish Danio rerio embryos; experiment: Zebrafish embryo toxicity assay (Zebratox, FET)
Protocol: Fertilized eggs at 24–48 h post-fertilization (hpf) were selected and transferred to a 96-well plate (1 embryo/well). […] DMSO (0.6%) was used as vehicle control for the test compounds. The exposure duration continued up to 72 hpf because it is the endpoint of embryonic development [41]. The dead embryos were eliminated, and the fertilized eggs were imaged at 0, 24, 48 and 72 hpf.
Eggs were collected 2 h post-fertilization (hpf) and kept in glass Petri dishes containing water for subsequent examination under a binocular microscope to confirm fertilization. […] Chemical treatments were performed by adding DMSO alone (negative control), or test molecule. These experiments were performed in four technical replicates.
The experiments were performed using a Zeiss inverted fluorescent microscope (Observer Z1). The zebrafish toxicological test (Zebratox) was realized as follows: the 24 h post-fertilization embryos were arrayed by hand with one embryo per well in black-walled 96-well microplates for fluorescence assays (Perkin Elmer, Waltham, MA, USA). The embryos were treated before hatching from 0 to 72 h post-fertilization. The 20 mM DMSO stock chemicals were diluted in fish water and added to the wells at final concentrations from 0.0 2µM to 5 μM. The negative control (0.25% DMSO) was added to each replicate plate. The experiments were realized in triplicate in three independent plates. […] The zebrafish fertilized eggs were provided by the ImPACcell-Biosit Zebrafish facilities (Rennes, France).

SMILES | pIC50 (MDA MB468) | Selectivity Index (SI) MDA MB468 (MDA MB468) | pIC50 (MCF7) | Selectivity Index (SI) MCF7 (MCF7) | pIC50 (Huh7 D12) | Selectivity Index (SI) Huh7 D12 (Huh7 D12) | pIC50 (HCT 116) | Selectivity Index (SI) HCT 116 (HCT 116) | pIC50 (tumor cell lines) | effect on fibroblasts (healthy skin cell), in words (Fibroblasts) | pIC50 (Fibroblasts) | pIC50 (MDA MB231) | Selectivity Index (SI) MDA MB231 (MDA MB231) | pIC50 (Caco2) | selectivity ratio at 48 h [1] | pIC50 (PC3) | Selectivity Index (SI) PC3 (PC3) | also measured
COc1cccc2c1Oc1ncn(/N=C/c3ccc(N(C)C)cc3)c(=N)c1C2 [10g, (3E) 3-N-(4-Dimethylaminophenylmethylidene)amino-4-imino-9-methoxy-3,5-dihydro-4H-chromeno[2,3-d]pyrimidine] | 4.74 | 0.61 | 5.00 | 1.1 | 5.22 | 1.83 | 4.62 | 0.46 | 4.60 to 6.00 | cytotoxic on fibroblasts | 4.96 | < 4.60 | < 0.44 | 5.00 | 1.1 | 4.80 | 0.69 | 
CN(C)c1ccc(/C=N/n2cnc3c(c2=N)Cc2c(ccc4ccccc24)O3)cc1 [10j, (10E) 10-N-(4-Dimethylaminophenylmethylidene)amino-11-imino-11H-naphto[1′,2′:5,6]pyrano[2,3-d]pyrimidine] | 4.74 | 0.61 | 5.00 | 1.1 | 5.22 | 1.83 | 4.62 | 0.46 | 4.60 to 6.00 | cytotoxic on fibroblasts | 4.96 | < 4.60 | < 0.44 | 5.00 | 1.1 | 4.80 | 0.69 | 
N=c1c2c(ncn1/N=C/c1ccccc1O)Oc1ccc3ccccc3c1C2 [10k, (10E) 10-N-(2-Hydroxyphenylmethylidene)amino-11-imino-11H-naphto[1′,2′:5,6]pyrano[2,3-d]pyrimidine] | 5.74 | 0.83 | 5.92 | 1.25 | 5.82 | 1 | 6.22 | 2.5 | 4.60 to 6.00 | cytotoxic on fibroblasts | 5.82 | 5.96 | 1.34 | 5.92 | 1.25 | 6.40 | 3.75 | pIC50 (PANC1; Homo sapiens, PANC-1, 48 h incubation, average of three assays, standard error ± 0.5 μM): 5.80; Selectivity Index (SI) PANC1 (PANC1; SI = IC50 fibroblasts/IC50 on PANC1): 0.94
COc1cccc2c1C(=O)c1c(O)c3c(c(O)c1C2=O)C[C@@](O)(C(=O)CO)C[C@@H]3O[C@H]1C[C@H](N)[C@H](O)[C@H](C)O1 [Doxorubicin, reference compound] | 7.52 | 0.33 | 7.05 | 0.11 | 7.22 | 0.16 | 7.15 | 0.14 |  |  | 8.00 | 7.70 | 0.50 | 7.52 | 0.33 | 7.15 | 0.14 | 
C#Cc1cccc(Nc2ncnc3cc(OCCOC)c(OCCOC)cc23)c1 [erlotinib, reference compound] |  |  |  |  |  |  |  |  |  |  |  |  |  |  |  |  |  | toxicity on zebrafish embryos ([2]; 1 μM dose, 72 hpf): no toxicity; hatching of the embryos ([2]; treatment for 48 and 72 hpf): complete hatching
